Experimental data published in ChEMBL document CHEMBL1125939, “Inhibition of steroid 5-reductase by 3-nitrosteroids: synthesis, mechanism of inhibition, and in vivo activity” (Bioorg Med Chem Lett, 1991).

What was measured:
[1] = Compound was tested for in vitro inhibitory activity against cynomolgus monkey Steroid 5-alpha-reductase; design: species or system Cercopithecidae
[2] = molecular target: T1, 3-oxo-5-alpha-steroid 4-dehydrogenase 2 (Homo sapiens, UniProt P31213); test: Compound was tested for inhibitory activity against human prostatic Steroid 5-alpha-reductase; settings: read-out: Ki app
T1 sequence (P31213 whole entry): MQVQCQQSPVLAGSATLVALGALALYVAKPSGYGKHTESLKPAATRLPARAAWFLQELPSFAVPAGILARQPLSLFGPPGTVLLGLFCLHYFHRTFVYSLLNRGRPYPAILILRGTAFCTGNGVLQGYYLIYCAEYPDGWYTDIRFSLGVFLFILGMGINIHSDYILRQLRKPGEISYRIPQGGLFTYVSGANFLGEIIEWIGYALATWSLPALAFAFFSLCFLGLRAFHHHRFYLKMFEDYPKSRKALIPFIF

[3] = molecular target: T1, 3-oxo-5-alpha-steroid 4-dehydrogenase 2; test: Compound was tested for inhibitory activity against human prostatic Steroid 5-alpha-reductase at 5 uM concentration; NS - No significant inhibition.

| SMILES | Ki [1] [nM] | Ki [2] [nM] | Ki app [3] |
| --- | --- | --- | --- |
| CC(C)N(C(=O)[C@H]1CCC2C3CC=C4C=C(C(=O)O)CC[C@]4(C)C3CC[C@@]21C)C(C)C (stereo partly specified) | 4 |  |  |
| CC(C)N(C(=O)[C@H]1CC[C@H]2[C@@H]3CCc4cc(C(=O)O)ccc4[C@H]3CC[C@]12C)C(C)C |  | 20 |  |
| CC(C)N(C(=O)[C@H]1CCC2C3CC=C4C=C([N+](=O)[O-])CC[C@]4(C)C3CC[C@@]21C)C(C)C (stereo partly specified) |  | 590 |  |
| CC(C)N(C(=O)[C@H]1CC[C@H]2[C@@H]3CCc4cc([N+](=O)[O-])ccc4[C@H]3CC[C@]12C)C(C)C |  |  | Not Active |
| CC(C)N(C(=O)[C@H]1CCC2C3CC[C@H]4C=C([N+](=O)[O-])CC[C@]4(C)C3CC[C@@]21C)C(C)C (stereo partly specified) | < 1 | 50 |  |
